Experimental data from patent publication US6417183B1, “1,4-diazacycloheptane derivatives” (Astrazenela UK Limited, priority 1997, dated 2002).
pIC50: −log10 of the molar value. Counter-ions that a name gives are not always drawn.

Experiments:
[1] = biological target: T1, [3H]-emopamil binding site (Cavia porcellus, UniProt Q60490); assay: 3H-Emopamil binding to guinea pig liver membranes; conditions: displacement of 0.96 nM (-)-3H-emopamil, 60 minutes at 37° C.
T1 construct: from tissue; host or cells: guinea pig liver membranes
T1 sequence (Q60490 1-229): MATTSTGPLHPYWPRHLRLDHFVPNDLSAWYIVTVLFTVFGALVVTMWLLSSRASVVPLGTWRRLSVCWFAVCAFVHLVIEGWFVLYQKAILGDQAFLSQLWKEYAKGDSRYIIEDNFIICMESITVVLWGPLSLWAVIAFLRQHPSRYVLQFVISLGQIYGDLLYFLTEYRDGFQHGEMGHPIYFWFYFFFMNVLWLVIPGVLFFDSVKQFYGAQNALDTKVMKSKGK
Description: ^3H-Emopamil Binding to Guinea Pig Liver Membranes
The method of (−)-^3H-emopamil binding was a modification of Zech, C., Staudinger R., Mühlbacher, J. and Glossmann, H. Novel sites for phenylalkylamines: characterization of a sodium-sensitive drug receptor with (−)-^3H-emopamil. Eur. J. Pharm. 208: 119-130, 1991.
The reaction mixture contained:
Assay buffer: 10 mM Tris-HCl, 0.1 mM phenylmethylsulfonyl fluoride (PMSF), 0.2% bovine serum albumin (BSA), pH 7.4 at 4° C.
Radioligand: 0.96 nM (−)-^3H-emopamil (Amersham).
Guinea pig liver membranes: 40 mg/mL original wet weight.
This mixture was incubated for 60 minutes at 37° C. The incubation was terminated by filtering with a Brandel Cell Harvester over Whatman GF/C filters that had been soaked for at least 120 minutes in 0.3% polyethylenimine (PEI) and washed three times with 5 mL of wash buffer containing 10 mM Tris-HCl, 10 mM MgCl2, 0.2% BSA, pH 7.4 at 25° C. Specific binding was defined with 10 μM emopamil. […]
Guinea-pig liver membrane preparation: Male guinea pigs were sacrificed by CO2 asphyxiation with dry ice. The livers were quickly excised and weighed and rinsed in membrane preparation buffer containing 10 mM Hepes, 1 mM Tris base-EDTA, 250 mM […] Teflon-glass homogenizer with three strokes on ice. […]

[2] = system: L-type voltage sensitive calcium channels (3H-D888 binding site); assay: 3H-D-888 binding to rat brain cortical membranes; conditions: displacement of 3H-D888, rat cortical membranes, 60 minutes at 25° C.
Description: ^3H-D-888 Binding to Rat Brain Cortical Membranes
The method of ^3H-D-888 binding was a modification of Reynolds, I. J., Snowman, A. M. and Synder, S. H. (−)-[^3H] Desmethoxyverapamil labels multiple calcium channel modular receptors in brain and skeletal muscle membranes: differentiation by temperature and dihydropyridines. J. Pharmacol. Exp. Ther. 237: no.3, 731-738, 1986.
The assay tubes contained the following: assay buffer: 50 mM Hepes, 0.2% BSA, pH 7.4 radioligand: 1 πM ^3H-D888 (Amersham) rat cortical membranes: 6 mg/ml original wet weight
This mixture was incubated for 60 minutes at 25° C. The assay was terminated by filtering with a Brandel Cell Harvester over Whatman GF/C filters that had been soaked for at least 120 minutes in 0.3% polyethylenamine (PEI) and washed three times with 5 mL of wash buffer containing 20 mM Hepes, 20 mM MgCl2, pH 7.4. Specific binding was measured with 10 μM methoxyverapamil (D-600). This assay was used to determine in vitro selectivity of compounds vs. L-type voltage sensitive calcium channels, i.e high affinity for the ^3H-D888 binding site would show a lack of selectivity. For example the compound of Example 4 gave a value of about 19.000 nM in this test.
Rat brain cortical membrane preparation: Male Sprague-Dawley Rats were sacrificed by decapitation and the brains were quickly excised. […]

melting point [°C]	pIC50 [1]	value in 3H-D-888 binding test (in vitro selectivity vs. L-type VSCC) [2]	Compound
125.4 to 126.3			CN1CCCN(C2CCCc3ccccc32)CC1 (centres unmarked) (as salt: maleate) [Example 1, 1-Methyl-4-(1,2,3,4-tetrahydro-1-naphthalenyl)homopiperazine]
149.5 to 151			CC(C)N1CCCN(C2CCCc3ccccc32)CC1 (centres unmarked) (as salt: hydrochloride) [Example 13, 1-Isopropyl-4-(1,2,3,4-tetrahydro-1-naphthalenyl)homopiperazine]
	7.77	about 19.000 nM	CN1CCCN([C@H]2CCCc3ccccc32)CC1 [Example 4, S(+) 1-Methyl-4-(1,2,3,4-tetrahydro-1-naphthalenyl)homopiperazine]

The remaining lines, values behind:

Compound	melting point [°C]	pIC50 [1]	value in 3H-D-888 binding test (in vitro selectivity vs. L-type VSCC) [2]
COc1cccc2c1CCCC2N1CCCN(C)CC1 (centres unmarked) (as salt: hydrochloride) [Example 7, 1-Methyl-4-(5-methoxy-1,2,3,4-tetrahydro-1-naphthalenyl)homopiperazine]	172.2 to 176.6		
CN1CCCN(C2CCCc3cc(F)ccc32)CC1 (centres unmarked) (as salt: salt) [Example 16, 1-Methyl-4-(6-fluoro-1,2,3,4-tetrahydro-1-naphthalenyl)homopiperazine]	78.8 to 79.5		
c1ccc2c(c1)CCCC2N1CCCNCC1 (centres unmarked) (as salt: salt) [Example 2, N-(1,2,3,4-Tetrahydro-1-naphthalenyl)homopiperazine]	107 to 109.4		
CCc1ccc2c(c1)CCCC2N1CCCN(C)CC1 (centres unmarked) (as salt: salt) [Example 25, 1-Methyl-4-(6-ethyl-1,2,3,4-tetrahydro-1-naphthalenyl)homopiperazine]	131.5 to 132.8		
